From patent US20140093641A1, “LUBRICANT COMPOSITIONS CONTAINING FLUOROOXIRANES” (3MM INNOVATIVE PROPERTIES COMPANY, priority 2011, published 2014)

Experiments:
[1] = system: rats; experiment: Short-term inhalation test (acute toxicity); format: in vivo; conditions: rats exposed for four hours at 50,000 ppm in air
[2] = Solubility testing of lubricants, additives and impurities in deposition solvents; format: physicochemical
Protocol: A disposable glass vial was placed on a four-place balance and the mass (MV) recorded. The balance with the glass vial was tared and deposition solvent was added (varying from 1 g to 5 g) and the mass (MS) was recorded. The balance with the deposition solvent in the glass vial was tared again. The lubricant was added in a dropwise fashion using a disposable plastic pipet and the mass (ML) recorded. The glass vial was then mixed by hand for 10 seconds to 30 seconds and the solution clarity was visually observed and recorded. If the solution was hazy, the lubricant was considered to have exceeded the solubility limit of the deposition solvent. If the solution was clear, additional drops of lubricant were added to the glass vial, the mass (ML) was recorded, the glass vial was shaken, and the solution clarity was observed. This process was continued until a hazy solution was observed or more than 10% w/w (weight of lubricant to combined weight of lubricant and deposition solvent) was reached. After a hazy solution or more than 10% w/w was reached, the glass vial with the solution was removed from the balance. The balance was tared and the final mass (MF) of the glass vial with deposition solvent and lubricant was measured and recorded. To account for the evaporative losses of the deposition solvent during the experiment, the mass of the vial and the mass of the lubricant added were subtracted from the total mass of the vial with the deposition solvent and lubricant to determine the final mass of deposition solvent (MS*) in the vial (i.e., MS*=MF−MV−ML). Solubility of the lubricant in deposition solvents was calculated as ML/(ML+MS*) and reported in % w/w (weight/weight).
If the endpoint was not clearly observed, the solubility experiment was repeated. Where a range is reported for solubility, the lower number is the highest soluble value and the higher number is the lowest insoluble value.

Row | Structure (SMILES) | acute toxicity, short-term inhalation [1] | Solubility in C6 Oxirane [2] | Solubility in C9 Oxirane [2] | Solubility in NOVEC 7100 [2] | Solubility in PF-5060DL [2] | Solubility in VERTREL XF [2]
1 | FC(F)(F)C1(F)OC1(F)C(F)(C(F)(F)F)C(F)(F)F (stereo not drawn) [C6 Oxirane, 2,3-difluoro-2-(1,2,2,2-tetrafluoro-1-trifluoromethyl-ethyl)-3-trifluoromethyl-oxirane] | low acute toxicity | – | – | – | – | –
2 | CCCCCCCCOC(=O)c1ccccc1C(=O)OCCCCCCCC [DOP, Dioctylphthlate] | – | <0.9% | <1.1% | 5.1% | <0.005% | >30%
